Assay results reported in PMC11425263, “Otilonium Bromide Exhibits Potent Antifungal Effects by Blocking Ergosterol Plasma Membrane Localization and Triggering Cytotoxic Autophagy in Candida Albicans” (Advanced Science, 2024).

Target: T1, Sec31 (Candida albicans, UniProt Q5AAU3)
T1 construct: gene PGA63; full-length with N-terminal GFP tag, expressed in C. albicans, tested in whole cell lysate; COPII coat component
T1 sequence (Q5AAU3 1-1265): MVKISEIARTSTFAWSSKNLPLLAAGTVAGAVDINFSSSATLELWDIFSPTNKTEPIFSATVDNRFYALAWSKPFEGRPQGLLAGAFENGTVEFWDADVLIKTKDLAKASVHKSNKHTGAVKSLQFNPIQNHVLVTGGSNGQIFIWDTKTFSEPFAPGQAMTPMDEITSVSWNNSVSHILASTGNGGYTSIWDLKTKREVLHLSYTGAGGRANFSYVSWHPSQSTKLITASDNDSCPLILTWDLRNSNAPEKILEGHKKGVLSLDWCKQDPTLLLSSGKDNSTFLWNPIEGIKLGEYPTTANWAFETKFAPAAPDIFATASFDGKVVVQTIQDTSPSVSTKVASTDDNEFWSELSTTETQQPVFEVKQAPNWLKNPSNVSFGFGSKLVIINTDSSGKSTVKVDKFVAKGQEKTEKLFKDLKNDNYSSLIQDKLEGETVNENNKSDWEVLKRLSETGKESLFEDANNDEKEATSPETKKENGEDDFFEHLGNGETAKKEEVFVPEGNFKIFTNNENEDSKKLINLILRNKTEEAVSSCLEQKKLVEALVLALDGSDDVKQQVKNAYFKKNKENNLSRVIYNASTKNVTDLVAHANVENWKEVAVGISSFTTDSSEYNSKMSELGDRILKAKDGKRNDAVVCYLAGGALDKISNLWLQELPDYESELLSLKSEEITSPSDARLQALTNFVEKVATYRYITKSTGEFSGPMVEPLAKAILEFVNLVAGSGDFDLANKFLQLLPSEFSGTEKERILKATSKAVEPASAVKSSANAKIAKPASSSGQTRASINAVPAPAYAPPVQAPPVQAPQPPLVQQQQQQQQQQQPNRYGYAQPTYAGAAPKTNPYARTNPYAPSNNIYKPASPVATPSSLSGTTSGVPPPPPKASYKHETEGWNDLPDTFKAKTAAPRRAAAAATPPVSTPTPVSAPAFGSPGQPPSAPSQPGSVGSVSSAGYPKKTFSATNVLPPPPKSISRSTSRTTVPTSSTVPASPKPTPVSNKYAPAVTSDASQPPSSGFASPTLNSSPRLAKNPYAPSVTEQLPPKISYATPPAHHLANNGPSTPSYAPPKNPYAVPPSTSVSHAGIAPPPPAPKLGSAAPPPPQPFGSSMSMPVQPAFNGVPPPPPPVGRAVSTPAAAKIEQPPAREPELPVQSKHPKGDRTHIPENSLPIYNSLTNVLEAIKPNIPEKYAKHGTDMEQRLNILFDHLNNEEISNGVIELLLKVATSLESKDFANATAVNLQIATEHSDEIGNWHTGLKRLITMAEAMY
Assay: DARTS, thermolysin protection, anti-GFP western blot
Format: biochemical
Conditions: GFP-Sec31 cell lysate; OTB 3.125 to 12.5 µg/mL, 1 h room temperature; thermolysin 15 min; beta-tubulin as control

CCCCCCCCOc1ccccc1C(=O)Nc1ccc(C(=O)OCC[N+](C)(CC)CC)cc1 [otilonium bromide]
DARTS, thermolysin protection, anti-GFP western blot: OTB effectively shielded Sec31 from degradation induced by thermolysin
